Source: publication PMC5329948, “Caspase vinyl sulfone small molecule inhibitors prevent axonal degeneration in human neurons and reverse cognitive impairment in Caspase-6-overexpressing mice” (Molecular Neurodegeneration, 2017)

Molecular target: T1, Casp6 in Casp6-transfected HCT116 cells (Homo sapiens, UniProt P55212)
T1 construct: The mammalian constructs encoding human Casp6p20p10 in the pCep4β vector; expressed in transfected cells; host or cells: HCT116 human colon carcinoma cells
T1 sequence (P55212 24-179): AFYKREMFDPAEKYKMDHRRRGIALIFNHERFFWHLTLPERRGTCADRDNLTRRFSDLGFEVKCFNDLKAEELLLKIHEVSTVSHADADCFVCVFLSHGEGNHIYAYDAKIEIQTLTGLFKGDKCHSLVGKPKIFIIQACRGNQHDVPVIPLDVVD
T1 sequence (P55212 194-293): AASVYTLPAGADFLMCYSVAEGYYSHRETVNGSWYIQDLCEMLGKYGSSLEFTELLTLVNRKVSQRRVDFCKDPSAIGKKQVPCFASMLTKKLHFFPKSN
Experiment: Casp6 VEIDase activity in extracts of Casp6p20p10-transfected HCT116 cells treated with inhibitor
Assay type: cell-based
Settings: for Casp6 activity rise within 15 min of inhibitor removal / activity at 100 µM: 100 μM for 2 h, mean ± SEM; for Casp6 activity rise within 15 min of inhibitor removal: then fresh media 15 min; for decrease of Casp6 VEIDase activity within 15 min of treatment / decrease of Casp6 activity: 100 μM, Casp6-transfected HCT116; for decrease of Casp6 activity: 2 h; for activity at 100 µM: HCT-116, then fresh media 2 h, % of initial activity, read-out: Casp6 activity recovered 2 h after inhibitor removal; for IC50: cells treated for 2 h, read-out: IC50 on Casp6 activity in pCep4β-Casp6p20p10-transfected HCT116 cells
Description: HCT116: Human colon carcinoma (HCT116) cells (ATCC, Manassas, VA, USA) were cultured in McCoy’s 5A modified media (Thermo Fisher Scientific, Waltham, MA, USA) supplemented with 10% fetal bovine serum (Thermo Fisher Scientific, Waltham, MA, USA) and transfected with 1 μg of pCep4βCasp6p20p10 mixed with 8 μg of polyethyleneimine (Polysciences Inc., Warrington, PA, USA). Protein expression was allowed for 24 h before treating with vehicle (PBS), 100 μM NWL-117, or 100 μM NWL-154 for 2 h. For NWL inhibitor kinetic experiments, 100 μM of NWL-117 or NWL-154 was added at 120, 90, 60, 30, 15, or 0 min before harvest. […] For recovery time course experiments, after the initial treatment with 100 μM of NWL-117 or −154 for 2 h, the media was replaced with fresh media for 120, 90, 60, 30, 15, or 0 min before harvest. Primary Human CNS neurons: Cortical tissues were obtained from the Birth Defects Research Laboratory (BDRL, University of Washington, Seattle, USA) in accordance with NIH ethical guidelines approved by McGill University’s institutional review board and primary neurons cultured as previously described. Primary human neurons were seeded on poly-L-lysine-coated (5 μg/mL) 6-well plates or glass coverslips coated with poly-L-lysine and laminin (5 μg/mL) (Sigma-Aldrich, Oakville, ON, CA) at a density of 3x10^6 cells/mL. Primary human neurons were pre-treated with 0.1 μM epoxomicin (Enzo LifeSciences, Farmingdale, NY, USA) and 100 μM NWL-117, 100 μM NWL-154, or vehicle (PBS) for 2 h, and serum-deprived for 2 h in the presence of epoxomicin and vehicle (PBS), 100 μM NWL-117, or 100 μM NWL-154 before harvesting or measuring caspase activity with FLICA, as described below.
Recombinant or extracted cellular Casp6 activity: Casp6 activity was assessed by in vitro fluorogenic assays using Ac-Val-Glu-Ile-Asp-(7-Amino-4-trifluoromethylcouramin) (Ac-VEID-AFC: Enzo LifeSciences, NY, USA) as the Casp6 substrate. The activity was measured in Stennicke’s buffer (SB) (20 mM piperazine-N, N-bis (2-ethanesulfonic acid) (PIPES: BioShop Canada Inc, Burlington, Ontario, CA) pH 7.2, 30 mM NaCl, 1 mM ethylenediaminetetraacetic acid (EDTA), 0.1% 3-[(3-cholamidopropyl)-dimethylammonio]-2-hydroxy-1-propanesulfonic acid (CHAPS), 10% sucrose). The reaction mix consisted of either 20 nM RCasp6 or 20–30 μg cellular protein extracts, SB, 10 mM DTT, 10 μM VEID-AFC substrate and deionized water. The activity was measured in a black clear bottom 96-well plate (Costar, Corning, NY, USA) at 50 μL/well in triplicate at 37 °C in the Synergy H4 plate reader (BioTek) at excitation 380 nm and emission 505 nm every two minutes for 100 min. Fluorescence units were converted to the moles of AFC released based on a standard curve of 0–625 picomoles of free AFC. Cleavage rates were calculated from the linear phase of the assay. The activity is considered on a percentage scale where no inhibitor present is equated to 100% activity of the enzyme. Cellular Casp6 activity assay by FLICA: Active Casp6 was labeled within primary human neurons using the fluorescent inhibitor of Casp6 (FLICA) (FAM-VEID-fmk, ImmunoChemistry, Bloomington, MN, USA) following the manufacturer’s protocol. Briefly, FLICA reagent and Hoechst 33342 were added to a black clear bottom 96-well plate containing 100,000 of the treated-primary human neurons for 2 h at 37 °C in 5% CO2. The cells were rinsed twice with wash buffer and fresh media was added to the cells. The fluorescence of FAM-VEID-fmk was measured at 490 nm excitation and 520 nm emission with bandwidth reduced to 8 nm in the Synergy H4 plate reader (BioTek). The Hoechst signal was measured by excitation at 360 nm and emission at 485 nm.
The half-maximal inhibitory concentrations (IC50) for NWL inhibitors (Patent publication # WO/2009/140765, WO/2010/133000, and WO/2012/140500) was determined by incubating 0 to 20 μM NWL-117 and NWL-154 with 20 nM of active site-titrated Casp6 in SB at room temperature for 5 minutes. […]

| SMILES | Casp6 activity rise within 15 min of inhibitor removal [%] | decrease of Casp6 VEIDase activity within 15 min of treatment [%] | decrease of Casp6 activity [%] | activity at 100 µM [%] | IC50 [µM] |
| --- | --- | --- | --- | --- | --- |
| CCC(C)[C@H](NC(=O)[C@H](CCC(=O)O)NC(=O)[C@@H](NC(=O)OCc1ccccc1)C(C)C)C(=O)N[C@H](/C=C/S(C)(=O)=O)CC(=O)O (stereo partly shown) [NWL-117] | 43 | 88 | 80 | 85 | 4.82 |
| CCC(C)[C@H](NC(=O)[C@H](CCC(=O)O)NC(=O)[C@@H](NC(=O)OCc1ccccc1)C(C)C)C(=O)N[C@H](/C=C(\Cl)S(C)(=O)=O)CC(=O)O (stereo partly shown) [NWL-154] | 21 | 95 | 96 | 30 | 3.63 |
